Laboratory results published in publication PMC11947101, “A phase Ia study of the MEK1/2 inhibitor PD-0325901 with the c-MET inhibitor crizotinib in patients with advanced solid cancers” (BJC Reports, 2025).

Tests used:
[1] = Plasma pharmacokinetics (HPLC-MS/MS) of crizotinib, PD-0325901 and PD-0315209 in patients; assay type: in vivo, human; conditions: for Tmax: plasma, po, combination treatment, 4 dose levels, read-out: Time of peak plasma concentrations after oral dosing; for Decrease in pre-dose concentrations on Days 21 compared to Day -1: Cycle 1 and 2, PD-0325901 8 mg B.D dose only
Protocol: PK trough samples (pre-dose and 2-h post dose) were obtained on day 21 of cycles 2, 4, 6, 8, 10 and 12. Plasma concentrations were determined using a validated high-performance liquid chromatography mass spectrometry (HPLC-MS/MS) assay following solid-phase extraction of the plasma sample.

[2] = test system: patients with advanced solid tumours; experiment: Phase Ia dose-escalation: safety, DLT and MTD of PD-0325901 with crizotinib
Source text: (§1) Patients could remain on combination treatment until disease progression or predefined unacceptable toxicity. At each dose level and before escalation to the next level, a safety study board comprising representatives from the study sponsor and collaborating investigators reviewed individual patient safety and DLTs. DLTs were defined as an almost certainly or probable drug-related adverse events to either drug (Supplementary Table S1), during the first cycle of treatment.
(§2) Safety assessments comprised of physical examination including vital signs, weight, ECOG PS assessment, documentation of adverse events (AEs) and concomitant medication, with regular monitoring of haematology and biochemistry. Ophthalmic examinations (including visual acuity, pressure, perimetry, slit lamp examination, fundoscopy, and optical coherence tomography), ECG and Echocardiography/MUGA were performed at baseline and at pre-defined time-points during the trial. […] At this stage, patients were not required to have measurable disease. Anti-tumour activity was assessed by radiological investigations according to revised RECIST, version 1.1, at baseline (within 28 days before day 1 of cycle 1), then every 2 cycles and at the end of treatment.
(§3) Safety and efficacy data were summarised using descriptive statistics. Evaluable patients for toxicity were those patients that received at least one dose of one or both drugs. Evaluable patients for MTD or dose escalation were those patients who completed cycle 1 or withdrew early for experiencing a DLT. Response analyses (i.e., RECIST 1.1) were performed on an intention-to-treat basis, and any patient who received any dose of study treatment was evaluable for response. Progression-free-survival (PFS) was defined as the time between receiving the first dose of study medication (cycle 1, day -7) to disease progression or death from any cause. Overall survival (OS) was defined as the time between cycle 1, day -7 to death from any cause.

[3] = test system: cMET; conditions: cited from earlier work
[4] = test system: patients with advanced malignancies; conditions: cited from earlier work
[5] = test system: patients with advanced solid tumours; conditions: in vivo
Source text: as §1, §2, §3

[6] = test system: pERK1/2; design: method as in PMID 20215549; conditions: doses ≥2 mg PD-0325901 B.D; cited from earlier work
[7] = test system: pERK1/2 and pMEK1/2 levels in skin biopsies; experiment: Pharmacodynamic markers in paired skin biopsies by Western blotting; assay type: in vivo, human; conditions: in particular at 8 mg B.D PD-0325901
Protocol: All patients consented to a fresh frozen punch skin biopsy during screening and on cycle 1 day 15 (±7 days). PD markers of MEK1/2 inhibition (pMEK1/2 and pERK1/2 levels) in skin biopsies were assessed by Western blotting, previously described [18, 30]. […] Western blot images were developed using the G:BOX Chemi XX6 gel doc system (Syngene, Cambridge, UK). Densitometry on Western blot images was performed using ImageJ software.

| SMILES | Steady state on multiple dosing ([1]; Cycle 1 Day 21 vs Cycle 1 Day 28) | Median trough plasma concentrations ([1]; all cohorts (data not shown)) [ng/mL] | Increase in crizotinib Cmax, Cmin and AUC0-10h with B.D dosing (cohorts 2-4) compared with cohort 1 (O.D) ([1]; days 21 and 28, p < 0.05) | Effect of PD-0325901 dose escalation (cohort 2 to cohort 4) on PK parameters of crizotinib ([1]; human, in vivo) | Tmax ([1]; human) [h] | Number of drug-related adverse events determined to be related to the named drug ([2]; all cohorts, combination treatment) | Patients requiring a dose reduction of the named drug due to DR-AEs ([2]; combination treatment, all cohorts) | Maximum tolerable dose (MTD) of crizotinib in combination with PD-0325901 ([2]; continuously (days 1–28), with PD-0325901 8 mg B.D) [mg B.D] | Pre-clinically predicted effective concentration to inhibit c-MET [3] [ng/mL] | Decrease in pre-dose concentrations on Days 21 compared to Day -1 [1] | Plasma concentrations relative to those required to inhibit MEK1/2 activity ([1]; all dose levels) | Maximum tolerated dose (MTD), single agent ([4]; continuously, subsequently revised due to late retinal vein occlusion) | Doses resulting in intolerable toxicity, single agent ([4]; irrespective of the schedule) | AUC at day 21 compared to day 1 (first dose), single agent ([4]; multiple B.D dosing) | Maximum tolerable dose (MTD) of PD-0325901 in combination with crizotinib ([2]; days 1–21 of 28-day cycle, with crizotinib 200 mg B.D) [mg B.D] | Serious adverse events thought to be drug-related [5] | Suppression of pERK1/2 in melanoma patient samples [6] [%] | pMEK1/2 levels in skin biopsies, post- vs pre-treatment [7] |
| --- | --- | --- | --- | --- | --- | --- | --- | --- | --- | --- | --- | --- | --- | --- | --- | --- | --- | --- |
| C[C@@H](Oc1cc(-c2cnn(C3CCNCC3)c2)cnc1N)c1c(Cl)ccc(F)c1Cl [crizotinib] | reached steady state by day 21 | > 62 | 1.6–2.6 fold | did not appear to affect | 2.76 to 5.21 | 124 | No patients | 200 | 62 | – | – | – | – | – | – | – | – | – |
| O=C(NOC[C@H](O)CO)c1ccc(F)c(F)c1Nc1ccc(I)cc1F [PD-0325901] | – | – | – | – | 1.02 to 2.27 | – | – | – | – | 1.8–2.2 fold | reached levels consistent with those required to inhibit MEK1/2 activity at all dose levels | 15 mg twice daily (B.D) | > 15 mg twice a day (B.D) | slightly higher | 8 | one | ≥ 60 | significant accumulation |
| O=C(O)c1ccc(F)c(F)c1Nc1ccc(I)cc1F [PD-0315209] | – | – | – | – | – | – | – | – | – | 1.8–2.2 fold | – | – | – | – | – | – | – | – |
